Source: ChEMBL document CHEMBL5223152, “Recent advances toward the development of Hsp90 C-terminal inhibitors” (Bioorg Med Chem Lett, 2023)
Each block holds one molecule with its values, some of them ahead of it.

Assays:
[1] = biological target: T1, Heat shock protein HSP 90-alpha (Homo sapiens, UniProt P07900); assay: Inhibition of recombinant GST-tagged HSP90alpha NTD (9 to 236 residues) (unknown origin) ATPase activity expressed in Escherichia coli BL21 (DE3)
NCI-H1299 [2] = assay: Antiproliferative activity against human NCI-H1299 cells assessed as inhibition of cell growth; assay type: functional, cell-based
[3] = Antiproliferative activity against human LNCap-LN3 cells assessed as inhibition of cell growth incubated for 24 hrs by CellTiter-glo luminescence assay; assay type: functional, cell-based; settings: LNCaP-LN3, 24 h
[4] = biological target: T1, Heat shock protein HSP 90-alpha; assay: Binding affinity to recombinant HSP90alpha (unknown origin) assessed as dissociation constant incubated for 30 mins by intrinsic fluorescence based spectroscopic analysis
[5] = biological target: Heat shock protein HSP 90-beta (Homo sapiens, UniProt P08238); assay: Binding affinity to recombinant HSP90beta (unknown origin) assessed as dissociation constant incubated for 30 mins by intrinsic fluorescence based spectroscopic analysis
Chain of Heat shock protein HSP 90-beta (P08238 whole entry): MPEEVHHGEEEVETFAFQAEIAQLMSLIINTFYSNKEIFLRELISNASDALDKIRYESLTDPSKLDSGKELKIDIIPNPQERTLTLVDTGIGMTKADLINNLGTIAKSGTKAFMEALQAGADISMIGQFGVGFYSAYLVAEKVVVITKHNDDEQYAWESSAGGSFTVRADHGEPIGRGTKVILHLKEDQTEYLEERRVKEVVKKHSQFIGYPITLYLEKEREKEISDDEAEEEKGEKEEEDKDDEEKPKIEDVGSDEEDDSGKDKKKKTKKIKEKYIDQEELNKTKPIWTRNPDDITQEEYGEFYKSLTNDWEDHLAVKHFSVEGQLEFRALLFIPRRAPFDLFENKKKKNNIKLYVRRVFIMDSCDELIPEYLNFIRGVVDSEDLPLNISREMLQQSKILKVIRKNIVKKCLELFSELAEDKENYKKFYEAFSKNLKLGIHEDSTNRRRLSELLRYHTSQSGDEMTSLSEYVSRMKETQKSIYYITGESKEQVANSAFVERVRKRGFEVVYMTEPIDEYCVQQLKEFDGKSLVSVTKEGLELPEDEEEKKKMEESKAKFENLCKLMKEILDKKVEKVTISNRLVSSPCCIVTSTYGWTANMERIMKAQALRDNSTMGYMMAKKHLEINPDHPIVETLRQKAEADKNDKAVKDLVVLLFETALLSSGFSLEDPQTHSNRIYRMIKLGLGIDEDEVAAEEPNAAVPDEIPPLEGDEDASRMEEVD

UMSCC22B = assay: Antiproliferative activity against human UMSCC22B cells assessed as inhibition of orosphere formation incubated for 10 to 14 days by light microscopic analysis; assay type: functional, cell-based
NCI-H1299 [6] = assay: Antiproliferative activity against human NCI-H1299 cells assessed as inhibition of cell growth incubated for 3 days by MTT assay; assay type: functional, cell-based; settings: NCI-H1299, 72 h
HCT-116 = assay: Antiproliferative activity against human HCT-116 cells assessed as reduction in cell viability incubated for 72 hrs by MTT assay; assay type: functional, cell-based; settings: HCT-116, 72 h
SK-BR-3 [7] = assay: Antiproliferative activity against human SK-BR-3 cells assessed as inhibition of cell proliferation incubated for 72 hrs by MTS proliferation assay; assay type: functional, cell-based; settings: SK-BR-3, 72 h
MDA-MB-231 = assay: Antiproliferative activity against human MDA-MB-231 cells assessed as inhibition of cell growth incubated for 48 to 72 hrs by MTS assay; assay type: functional, cell-based
UACC-62 = assay: Antiproliferative activity against human UACC-62 cells assessed as inhibition of cell growth; assay type: functional
Jurkat = assay: Antiproliferative activity against human jurkat cells assessed as reduction in cell viability incubated for 48 hrs by MTT assay; assay type: functional, cell-based
MCF7 [8] = assay: Antiproliferative activity against human MCF7 cells assessed as inhibition of cell proliferation incubated for 72 hrs by MTS assay; assay type: functional, cell-based; settings: MCF7, 72 h
[9] = biological target: T1, Heat shock protein HSP 90-alpha; assay: Binding affinity to human recombinant HSP90alpha C-terminal domain (563 to 732 residues) expressed in Escherichia coli BL21(DE3) cells assessed as dissociation constant incubated for 15 mins by microscale thermophoresis analysis
K562 = assay: Antiproliferative activity against BCR-ABL1 positive human K562 cells assessed as inhibition of cell growth incubated for 72 hrs by ATP-based celltiter Glo assay; assay type: functional; settings: K562, 72 h
SK-BR-3 [10] = assay: Antiproliferative activity against human SK-BR-3 cells assessed as inhibition of cell proliferation; assay type: functional, cell-based
NCI-H1299 [11] = assay: Antiproliferative activity against human NCI-H1299 cells assessed as reduction in cell viability incubated for 2 to 3 days by MTT assay; assay type: functional, cell-based
Heat shock protein HSP90 = Heat shock protein HSP90 (Homo sapiens, UniProt P07900+P08238); assay: Binding affinity to NT-647 labelled recombinant HSP90 (unknown origin) C-terminal domain assessed as dissociation constant by microscale thermophoresis analysis; assay type: protein assay
[12] = biological target: T1, Heat shock protein HSP 90-alpha; assay: Binding affinity to recombinant human HSP90alpha assessed as dissociation constant measured for 300 secs by SPR analysis
MCF7 [13] = assay: Antiproliferative activity against human MCF7 cells assessed as inhibition of cell proliferation by MTS assay; assay type: functional, cell-based
SK-N-MC = assay: Antiproliferative activity against human SK-N-MC cells assessed as inhibition of cell proliferation by MTS assay; assay type: functional, cell-based
NCI-H1299 [14] = assay: Antiproliferative activity against human NCI-H1299 cells assessed as reduction in cell viability incubated for 5 days by MTT assay; assay type: functional, cell-based; settings: NCI-H1299, 120 h

IC50 [1]: 119000 nM
SMILES: CC(C)(C)CC(C)(C)NCC(O)COc1ccc(C(C)(C)c2ccc(OCC(O)CNC(C)(C)CC(C)(C)C)cc2)cc1 (stereo not given)

Kd [4]: 191000 nM
Kd [5]: 726000 nM
SMILES: Cc1c(OCCC2CCCCN2)ccc2cc(NC(=O)Nc3ccc(Cl)cc3)c(=O)oc12 (stereo not given)
IC50 [3]: 2000 nM

IC50 (NCI-H1299 [2]; Homo sapiens, NCI-H1299, read-out: IC50): 1000 nM
SMILES: COc1cc2nccc(C(OC(=O)C3CC3)c3ccc4c(c3OC)C=CC(C)(C)O4)c2cc1OC (stereo not given)

IC50 (NCI-H1299 [6]): 1000 nM
SMILES: COc1cc2nccc(C(OC(C)=O)c3ccc4c(c3OC)C=CC(C)(C)O4)c2cc1OC (stereo not given)

IC50 (SK-BR-3 [7]): 2000 nM
SMILES: COc1cc(NC(=O)c2ccc3c(c2OC)C=CC(C)(C)O3)ccc1OCCC1CCCCN1 (stereo not given)

IC50 (MCF7 [8]): 31800 nM
SMILES: Cc1ccc(Cl)c(OCC2(O)CCN(Cc3ccc(OCCN4CCOCC4)cc3)CC2)c1

IC50 (SK-BR-3 [10]): 99 nM
SMILES: Cc1ccc(Cn2cc(C(=O)Nc3ccc(/C=C/c4ccc(OC5CCN(C)CC5)cc4)cc3)nn2)cc1

Kd (Heat shock protein HSP90): 27400 nM
SMILES: CC[C@@H](C)[C@@H](ONC(=O)[C@H](ONC(=O)[C@@H](Cc1ccccc1)ONC(=O)[C@@H](Cc1ccccc1)ONC(=O)OCc1ccccc1)[C@H](C)CC)C(=O)NO[C@H](CC(C)C)C(=O)NO[C@H](CC(C)C)C(N)=O

IC50 (SK-BR-3 [10]): 680 nM
SMILES: COc1cccc(-c2cc(C(=O)Nc3ccc(/C=C/c4ccc(OC5CCN(C)CC5)cc4)cc3)ccc2OC)c1

Kd [12]: 20.9 nM
SMILES: COc1ccc(NCC(=O)Nc2ncc(Cc3ccc(Cl)c(Cl)c3)s2)cc1

IC50 (MCF7 [13]): 1400 nM
IC50 (SK-N-MC): 2800 nM
SMILES: Nc1c(C(=O)c2ccc(-c3ccc(Br)cc3)cc2)sc2nc3c(c(-c4ccccc4)c12)CNCC3

Continued, molecule first:

SMILES: COc1ccc(CC(=O)c2ccc3c(c2OC)C=CC(C)(C)O3)cc1OC
IC50 (NCI-H1299 [2]): 140 nM

SMILES: COc1cccc(-c2cccc(NC(=O)Nc3cc4ccc(OC5CCN(C)CC5)c(C)c4oc3=O)c2)c1
IC50 (UMSCC22B): 1000 nM

SMILES: COc1ccc2c(c1OC)O[C@]13C(=O)N4O[C@H]5[C@H](O)C=C[C@@H](Cl)[C@@]5(O)C[C@@]4(SS[C@H]21)C(=O)N3C
IC50 (HCT-116): 330 nM

SMILES: COc1cc2nccc(C(OC(=O)C3CC3)c3ccc4c(c3)C=CC(C)(C)O4)c2cc1OC (stereo not given)
IC50 (MDA-MB-231): 5000 nM

SMILES: COc1cccc(-c2cc(NC(=O)Nc3cc4ccc(OC5CCN(C)CC5)c(C)c4oc3=O)ccc2C)c1
IC50 (UACC-62): 360 nM

SMILES: CCOC(=O)C1=C(C)N(c2ccccc2)C(=O)NC1c1cc(O)ccc1Br (stereo not given)
IC50 (Jurkat): 15200 nM

SMILES: CCC(C)n1c(C(=O)NC2CN=C(C(=O)NC)N(CC(C)C)C2=O)ncc(NC(=O)c2ncc(NC(=O)c3ccccc3)c(=O)n2Cc2ccc(OC)cc2)c1=O (stereo not given)
Kd [9]: 3420 nM
IC50 (K562): 1300 nM

SMILES: Cc1c(OC2CCN(C)CC2)ccc2cc(NC(=S)Nc3cccc(Cl)c3)c(=O)oc12
IC50 (UMSCC22B): 20000 nM

SMILES: COc1cc(NC(=O)c2ccc3c(c2OC)C=CC(C)(C)O3)ccc1OCCc1ccncc1
IC50 (NCI-H1299 [11]): 230 nM

SMILES: COc1cc(NC(=O)c2ccc3c(c2OC)C=CC(C)(C)O3)ccc1OCCc1cccnc1
EC50 (NCI-H1299 [14]): 230 nM
